Assay results taken from patent EP0260744B1, “(1H-imidazol-1-ylmethyl) substituted benzimidazole derivatives” (JANSSEN PHARMACEUTICA N.V., priority 1986, dated 1988).

System: Plasma testosterone concentrations
Assay: Testosterone in vivo test
Conditions: Rattus norvegicus, 2 h; male rats, oral; LHRH-analogue i.m. after one hour; plasma testosterone two hours after administration; 50% inhibition relative to placebo
Description: Male rats were administered orally a test compound as a solution or as a suspension in aqueous medium. One hour following drug or placebo administration, a luteinizing hormone releasing hormone- analogue was injected intramuscularly and an anaesthetic was administered intraperitonally. Two hours after the oral administration of the test compound the rats were decapitated, and the blood was collected on heparine. Plasma testosterone concentrations were measured by standard radio-immunological procedures. A 50% inhibition relative to the placebo values was considered as the criterion of testosterone inhibitory activity. ED50-values were determined by probit analysis.

Structure (SMILES) | ED50
Cn1cnc2cc(C(c3ccccc3)n3ccnc3)ccc21 (centres unmarked) [Compound 28] | 2.5 mg/kg
Cn1c(-c2ccccc2)nc2ccc(C(c3ccccc3)n3ccnc3)cc21 (centres unmarked) [Compound 30] | 2.5 mg/kg
c1csc(C(c2ccc3[nH]c(-c4cscn4)nc3c2)n2ccnc2)c1 (centres unmarked) [Compound 34] | 2.5 mg/kg
COc1ccc(-c2nc3cc(C(c4ccccc4)n4ccnc4)ccc3[nH]2)cc1 (centres unmarked) [Compound 49] | < 2.5 mg/kg
c1cn(Cc2ccc3[nH]c(-c4cscn4)nc3c2)cn1 [Compound 51] | 2.5 mg/kg
Nc1ncccc1-c1nc2cc(Cn3ccnc3)ccc2[nH]1 [Compound 53] | 2.5 mg/kg
CCC(c1ccc2[nH]c(-c3ccccc3)nc2c1)n1ccnc1 (centres unmarked) [Compound 54] | 2.5 mg/kg
c1ccc2c(Cc3nc4cc(Cn5ccnc5)ccc4[nH]3)c[nH]c2c1 [Compound 71] | 2.5 mg/kg
CC(c1ccc2[nH]c(C(F)F)nc2c1)n1ccnc1 (centres unmarked) [Compound 78] | < 2.5 mg/kg
CCC(c1ccc2[nH]c(C(F)(F)F)nc2c1)n1ccnc1 (centres unmarked) [Compound 83, 5-[1-(1 H-imidazol-1-yl)propyl]-2-(trifluoromethyl)-1 H-benzimidazole] | < 2.5 mg/kg
CC(C)C(c1ccc2[nH]c(C(F)(F)F)nc2c1)n1ccnc1 (centres unmarked) [Compound 84, 5-[1-(1 H-imidazol-1-yl)-2-methylpropyl]-2-(trifluoromethyl)-1 H-benzimidazole ethanedioate(1:1).hemihydrate] | < 2.5 mg/kg
Fc1ccccc1-c1nc2ccc(C(c3ccccc3)n3ccnc3)cc2[nH]1 (centres unmarked) [Compound 92, 2-(2-fluorophenyl)-5-[(1 H-imidazol-1-yl)phenylmethyl]-1H-benzimidazole ethanedioate(2:3)] | < 2.5 mg/kg
Clc1cccc(C(c2ccc3[nH]cnc3c2)n2ccnc2)c1 (centres unmarked) [Compound 93, 5-[(3-chlorophenyl)-(1 H-imidazol-1-yl)methyl]-1 H-benzimidazole] | 2.5 mg/kg
c1ccc(Cn2cnc3ccc(Cn4ccnc4)cc32)cc1 [Compound 102] | < 2.5 mg/kg
c1ccc(C(c2ccc3[nH]cnc3c2)n2ccnc2)cc1 (centres unmarked) [Compound 111, 5-[(1 H-imidazol-1-yl)phenylmethyl]-1 H-benzimidazole] | < 10 mg/kg
c1cncc(C(c2ccc3[nH]cnc3c2)n2ccnc2)c1 (centres unmarked) [Compound 112, 5-[(1 H-imidazol-1-yl)(3-pyridinyl)methyl]-1 H-benzimidazole] | 2.5 mg/kg
c1csc(C(c2ccc3[nH]cnc3c2)n2ccnc2)c1 (centres unmarked) [Compound 113, 5-[(1H-imidazol-1-yl)(2-thienyl)methyl]-1H-benzimidazole] | < 10 mg/kg
COc1nc2cc(C(c3ccccc3)n3ccnc3)ccc2[nH]1 (centres unmarked) [Compound 115, 5-[(1 H-imidazol-1-yl)phenylmethyl]-2-methoxy-1 H-benzimidazole] | 2.5 mg/kg
CCC(c1ccc2[nH]cnc2c1)n1ccnc1.Cl.Cl (centres unmarked) [Compound 119, 5-[1-(1 H-imidazol-1-yl)propyl]-1 H-benzimidazole dihydrochloride] | 2.5 mg/kg

Structure (SMILES) | ED50
Cc1nc2cc(C(c3cccc(Cl)c3)n3ccnc3)ccc2[nH]1 (centres unmarked) [Compound 122, 5-[(3-chlorophenyl)(1 H-imidazol-1-yl)methyl]-2-methyl-1 H-benzimidazole] | 2.5 mg/kg
Cc1nc2cc(C(c3cccs3)n3ccnc3)ccc2[nH]1 (centres unmarked) [Compound 125] | 2.5 mg/kg
Cc1nc2cc(C(c3ccc(Cl)cc3Cl)n3ccnc3)ccc2[nH]1 (centres unmarked) [Compound 127] | 10 mg/kg
CCCCCc1nc2cc(Cn3ccnc3)ccc2[nH]1 [Compound 133] | < 2.5 mg/kg
CCCCCc1nc2cc(C(c3ccccc3)n3ccnc3)ccc2[nH]1 (centres unmarked) [Compound 136] | < 2.5 mg/kg
Fc1cccc(-c2nc3cc(Cn4ccnc4)ccc3[nH]2)c1 [Compound 141] | 2.5 mg/kg
Fc1ccc(-c2nc3cc(Cn4ccnc4)ccc3[nH]2)cc1 [Compound 142] | 2.5 mg/kg
Cc1nc2cc(C(C(C)C)n3ccnc3)ccc2n1C (centres unmarked) [Compound 160] | 2.5 mg/kg
Cc1ccc(-c2nc3cc(C(c4ccccc4)n4ccnc4)ccc3[nH]2)cc1 (centres unmarked) [Compound 173] | < 2.5 mg/kg
Fc1ccc(-c2nc3cc(C(c4ccccc4)n4ccnc4)ccc3[nH]2)cc1 (centres unmarked) [Compound 174] | < 2.5 mg/kg
Cc1nc2cc(C(C(C)C)n3ccnc3)ccc2[nH]1 (centres unmarked) [Compound 182] | 2.5 mg/kg
CC(c1ccc2[nH]c(-c3cccnc3)nc2c1)n1ccnc1 (centres unmarked) [Compound 189, 5-[1-(1H-imidazol-1-yl)ethyl]-2-(3-pyridinyl)-1H-benzimidazole] | 2.5 mg/kg
c1ccc(C(c2ccc3[nH]c(-c4cccnc4)nc3c2)n2ccnc2)cc1 (centres unmarked) [Compound 190, 5-[(1 H-imidazol-1-yl)phenylmethyl]-2-(3-pyridinyl)-1H-benzimidazole] | 10 mg/kg
Cc1nc2cc(C(C)n3ccnc3)ccc2[nH]1.Cl.Cl (centres unmarked) [Compound 206, 5-[1-(1 H-imidazol-1-yl)ethyl]-2-methyl-1 H-benzimidazole dihydrochloride] | < 2.5 mg/kg
Cn1c(O)nc2cc(Cn3ccnc3)ccc21 [Compound 222, 5-(1 H-imidazol-1-ylmethyl)-1-methyl-1 H-benzimidazol-2-ol] | < 2.5 mg/kg
COn1c(-c2ccccc2)nc2ccc(Cn3ccnc3)cc21 [Compound 227, 6-(1 H-imidazol-1-ylmethyl)-1-methoxy-2-phenyl-1 H-benzimidazole] | 2.5 mg/kg
COn1c(-c2cccnc2)nc2ccc(Cn3ccnc3)cc21 [Compound 229] | 2.5 mg/kg
COn1c(C)nc2ccc(C(c3ccccc3)n3ccnc3)cc21 (centres unmarked) [Compound 231] | 2.5 mg/kg
COn1c(-c2ccc(F)cc2)nc2ccc(C(C)n3ccnc3)cc21 (centres unmarked) [Compound 235] | 2.5 mg/kg
